Data on 8 compounds can be found in ChEMBL document CHEMBL1201862, “PubChem BioAssay data set” (2004).

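Dose response: 5 concentrations. Exposure: 48 h. Format: 96-well plates. Endpoint: linear interpolation; highest concentration if not reached. GI50: concentration for 50% inhibition of growth.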 Calls of active or inactive are those of the source. Rule as the data show it: active = GI50 up to about 1.1 µM and inactive = higher.

What all share (experiment): NCI anticancer screen, dose series, 48 h
In experiment [1] the test system is HOP-62.
Experiment [2] deals with SK-MEL-5.
Experiment [3] has as its system HCT-116.
Experiment [4] has as its system U-251.
The test system of experiment [5] is SN12C.
Experiment [6] relates to HT-29.
Experiment [7] concerns SF-268.
Experiment [8] deals with M14.
Experiment [9] deals with CAKI-1.
Experiment [10] deals with DU-145.
The test system of experiment [11] is COLO 205.
Experiment [12] relates to UACC-257.
Experiment [13] concerns OVCAR-3.
The subject of experiment [14] is KM12.
The test system of experiment [15] is K562.
The test system of experiment [16] is HCT-15.
Experiment [17] deals with HCC 2998.
For experiment [18], the system named is NCI-H460.
The test system of experiment [19] is HOP-92.
Experiment [20] has as its system A498.

`CC1CC/C(=C\c2ccc(Cl)cc2)C2OC(N)=C(C#N)C(c3ccc(Cl)cc3)=C12` (stereo unspecified): the GI50 in [1] was 2.18 µM (inactive); in experiment [2] it was 15.4 µM (inactive); in experiment [3], 12.6 µM (inactive); in experiment [4], 15.2 µM (inactive); in experiment [5] it was 13.7 µM (inactive); in [6], 6.92 µM (inactive). Also, the GI50 in [7] is 13.2 µM (inactive); in experiment [8] it was 16.2 µM (inactive); in experiment [9], 15.1 µM (inactive); in experiment [10], 17 µM (inactive); in experiment [11], 12.5 µM (inactive); in experiment [12] it was 31.6 µM (inactive). For the same compound, the GI50 in experiment [13] was 11.7 µM (inactive); in [14], 11.7 µM (inactive); in experiment [15], 9.66 µM (inactive); in experiment [16], 11.1 µM.
As to `CCc1ccccc1NC(=O)C(=O)CC(=O)c1sc(Nc2ccccc2Cl)nc1C`, the GI50 in experiment [1] was 31.6 µM (inactive); in experiment [2], 17.6 µM (inactive); in [3] it was 17.9 µM (inactive); in experiment [4] it was 32.5 µM (inactive); in experiment [17], 30.1 µM (inactive); in [5], 42.7 µM (inactive). Besides, the GI50 in [6] is 22.1 µM (inactive); in experiment [7], 66.4 µM (inactive); in experiment [18], 21.2 µM (inactive); in experiment [8] it was 27.7 µM (inactive); in experiment [9], 46.1 µM (inactive); in experiment [10] it was 55.1 µM (inactive). For the same compound, the GI50 in experiment [11] is 22.2 µM (inactive); in [12], 43.8 µM (inactive); in experiment [13], 19.5 µM (inactive); in experiment [14], 29.6 µM (inactive); in experiment [15] it was 29.4 µM (inactive); in experiment [16], 30.6 µM.
Turning to `O=C1C=Cc2c1csc2Br`, the GI50 in experiment [1] is > 100 µM (inactive); in experiment [2] it was 69.3 µM (inactive); in experiment [3], 43.3 µM (inactive); in experiment [4] it was 51.2 µM (inactive); in experiment [5] it was > 100 µM (inactive); in experiment [6], 96.8 µM (inactive). Besides, the GI50 in experiment [7] was 86.9 µM (inactive); in experiment [18], > 100 µM (inactive); in experiment [8] it was 19.1 µM (inactive); in experiment [9] it was > 100 µM (inactive); in experiment [10], > 100 µM (inactive); in experiment [11], 64.7 µM (inactive). The GI50 in experiment [12] is 67.3 µM (inactive); in [13] it was 71 µM (inactive); in experiment [14] it was 50.8 µM (inactive); in experiment [15] it was 26.5 µM (inactive); in experiment [16] it was 28.6 µM.
Turning to `O=C(O/N=C1/CCC/C1=C\c1ccccc1)c1ccc(Cl)c(Cl)c1`, the GI50 in [1], in experiment [2], in experiment [3], in experiment [4], in [17] and in experiment [5] was > 100 µM (inactive) throughout. The GI50 in experiment [6], in [7], in experiment [18], in experiment [8], in experiment [9] and in experiment [19] was > 100 µM (inactive) throughout. Moreover, the GI50 in [11], in experiment [12], in experiment [20], in experiment [13], in experiment [14] and in experiment [15] was > 100 µM (inactive) each time. The compound further showed a GI50 in experiment [16] above 100 µM.
Take `COC(=O)C1=CC(=O)OC1(OO)c1ccc(Br)cc1` (stereo unspecified): the GI50 in experiment [2] was > 100 µM (inactive); in experiment [3], 47.1 µM (inactive); in experiment [4] it was > 100 µM (inactive); in experiment [17] it was > 100 µM (inactive); in experiment [5] it was > 100 µM (inactive); in experiment [6], 57.4 µM (inactive). In addition, the GI50 in [18] was > 100 µM (inactive); in [8] it was > 100 µM (inactive); in [9], > 100 µM (inactive); in [19], > 100 µM (inactive); in experiment [10], > 100 µM (inactive); in experiment [11], 44.3 µM (inactive). In addition, the GI50 was > 100 µM (inactive) in experiment [12]; > 100 µM (inactive) in experiment [13]; > 100 µM (inactive) in experiment [14]; 33.7 µM (inactive) in experiment [15]; 46.5 µM in [16].
Regarding `CC1(C)/C(=N\Nc2ccc([N+](=O)[O-])cc2[N+](=O)[O-])C2CCC1C2` (stereo unspecified), the GI50 in experiment [1] was 74.5 µM (inactive); in [2], 4.2 µM (inactive); in experiment [3], 5.65 µM (inactive); in experiment [4] it was > 100 µM (inactive); in [5] it was > 100 µM (inactive); in [6] it was > 100 µM (inactive). The GI50 in experiment [7] was > 100 µM (inactive); in [18] it was > 100 µM (inactive); in [8], > 100 µM (inactive); in experiment [9], > 100 µM (inactive); in [19], 93.8 µM (inactive); in experiment [10] it was > 100 µM (inactive). Besides, the GI50 was > 100 µM (inactive) in experiment [11]; 19.3 µM (inactive) in experiment [12]; > 100 µM (inactive) in experiment [13]; 30.1 µM (inactive) in experiment [14]; > 100 µM (inactive) in experiment [15]; above 100 µM in experiment [16].
Turning to `C[C@@H]1C(=O)CC2(O)[C@@]13C[C@@H](OC(=O)[C@@H]3O)[C@@H](C)[C@@]21COC1=O` (stereo partly specified), the GI50 in experiment [1], in experiment [2], in experiment [3], in [4], in [17] and in [5] was > 100 µM (inactive) each time. The GI50 in experiment [6], in experiment [7], in [18], in experiment [8], in experiment [10] and in experiment [11] was > 100 µM (inactive) in each case. Also, the GI50 in experiment [12] is > 100 µM (inactive); in experiment [13] it was > 100 µM (inactive); in experiment [14] it was > 100 µM (inactive); in [15], > 100 µM (inactive); in [16], above 100 µM.
Regarding `CC(=O)OC(C)(C)/C=C/C(=O)[C@](C)(O)[C@H]1[C@H](O)C[C@@]2(C)[C@@H]3CC=C4[C@@H](C[C@H](O)C(=O)C4(C)C)[C@]3(CO)C(=O)C[C@]12C` [CUCURBITACIN A], the GI50 is 0.26 µM (active) in experiment [1]; 0.316 µM (active) in experiment [2]; 0.437 µM (active) in experiment [3]; 0.233 µM (active) in experiment [4]; 0.35 µM (active) in [17]; 0.448 µM (active) in [5]. The GI50 in [6] was 0.308 µM (active); in [7], 0.168 µM (active); in experiment [18], 0.184 µM (active); in experiment [8], 0.39 µM (active); in experiment [9], 0.243 µM (active); in experiment [19], 0.237 µM (active). The GI50 in [11] is 0.318 µM (active); in [12] it was 0.364 µM (active); in [20], 0.231 µM (active); in [13], 0.446 µM (active); in [14], 1.1 µM (active); in experiment [15], 0.445 µM (active). This compound showed a GI50 in experiment [16] of 0.468 µM.
